Results: ChEMBL document CHEMBL4814007, “Structure-based discovery of SIAIS001 as an oral bioavailability ALK degrader constructed from Alectinib” (Eur J Med Chem, 2021)
Activity calls are given as the source filed them. The rule behind the calls is not given here.

Key:
SR [1] = test: Antiproliferative activity against ALK positive human SR cells; format: functional, cell-based
[2] = target: T1, Protein cereblon/ALK tyrosine kinase receptor (Homo sapiens, UniProt Q9UM73+Q96SW2); test: Protac activity at CRBN/ALK in human SR cells assessed as protein abundance at 5 nM by Western blot analysis (reference value: 1); format: cell-based
Target sequence in this assay (Q96SW2 whole entry partner): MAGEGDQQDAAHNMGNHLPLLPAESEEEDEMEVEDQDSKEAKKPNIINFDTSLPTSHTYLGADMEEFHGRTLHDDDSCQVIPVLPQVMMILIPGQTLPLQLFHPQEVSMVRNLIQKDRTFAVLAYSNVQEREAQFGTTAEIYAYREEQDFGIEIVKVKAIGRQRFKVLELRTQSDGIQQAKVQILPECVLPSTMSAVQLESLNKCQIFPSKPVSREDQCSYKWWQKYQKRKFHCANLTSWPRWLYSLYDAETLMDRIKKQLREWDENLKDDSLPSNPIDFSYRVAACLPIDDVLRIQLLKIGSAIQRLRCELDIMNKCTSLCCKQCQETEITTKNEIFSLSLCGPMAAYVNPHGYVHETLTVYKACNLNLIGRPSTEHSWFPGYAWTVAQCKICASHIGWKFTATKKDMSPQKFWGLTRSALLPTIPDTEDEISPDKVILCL
Target sequence in this assay (Q9UM73 19-1620 limits assumed): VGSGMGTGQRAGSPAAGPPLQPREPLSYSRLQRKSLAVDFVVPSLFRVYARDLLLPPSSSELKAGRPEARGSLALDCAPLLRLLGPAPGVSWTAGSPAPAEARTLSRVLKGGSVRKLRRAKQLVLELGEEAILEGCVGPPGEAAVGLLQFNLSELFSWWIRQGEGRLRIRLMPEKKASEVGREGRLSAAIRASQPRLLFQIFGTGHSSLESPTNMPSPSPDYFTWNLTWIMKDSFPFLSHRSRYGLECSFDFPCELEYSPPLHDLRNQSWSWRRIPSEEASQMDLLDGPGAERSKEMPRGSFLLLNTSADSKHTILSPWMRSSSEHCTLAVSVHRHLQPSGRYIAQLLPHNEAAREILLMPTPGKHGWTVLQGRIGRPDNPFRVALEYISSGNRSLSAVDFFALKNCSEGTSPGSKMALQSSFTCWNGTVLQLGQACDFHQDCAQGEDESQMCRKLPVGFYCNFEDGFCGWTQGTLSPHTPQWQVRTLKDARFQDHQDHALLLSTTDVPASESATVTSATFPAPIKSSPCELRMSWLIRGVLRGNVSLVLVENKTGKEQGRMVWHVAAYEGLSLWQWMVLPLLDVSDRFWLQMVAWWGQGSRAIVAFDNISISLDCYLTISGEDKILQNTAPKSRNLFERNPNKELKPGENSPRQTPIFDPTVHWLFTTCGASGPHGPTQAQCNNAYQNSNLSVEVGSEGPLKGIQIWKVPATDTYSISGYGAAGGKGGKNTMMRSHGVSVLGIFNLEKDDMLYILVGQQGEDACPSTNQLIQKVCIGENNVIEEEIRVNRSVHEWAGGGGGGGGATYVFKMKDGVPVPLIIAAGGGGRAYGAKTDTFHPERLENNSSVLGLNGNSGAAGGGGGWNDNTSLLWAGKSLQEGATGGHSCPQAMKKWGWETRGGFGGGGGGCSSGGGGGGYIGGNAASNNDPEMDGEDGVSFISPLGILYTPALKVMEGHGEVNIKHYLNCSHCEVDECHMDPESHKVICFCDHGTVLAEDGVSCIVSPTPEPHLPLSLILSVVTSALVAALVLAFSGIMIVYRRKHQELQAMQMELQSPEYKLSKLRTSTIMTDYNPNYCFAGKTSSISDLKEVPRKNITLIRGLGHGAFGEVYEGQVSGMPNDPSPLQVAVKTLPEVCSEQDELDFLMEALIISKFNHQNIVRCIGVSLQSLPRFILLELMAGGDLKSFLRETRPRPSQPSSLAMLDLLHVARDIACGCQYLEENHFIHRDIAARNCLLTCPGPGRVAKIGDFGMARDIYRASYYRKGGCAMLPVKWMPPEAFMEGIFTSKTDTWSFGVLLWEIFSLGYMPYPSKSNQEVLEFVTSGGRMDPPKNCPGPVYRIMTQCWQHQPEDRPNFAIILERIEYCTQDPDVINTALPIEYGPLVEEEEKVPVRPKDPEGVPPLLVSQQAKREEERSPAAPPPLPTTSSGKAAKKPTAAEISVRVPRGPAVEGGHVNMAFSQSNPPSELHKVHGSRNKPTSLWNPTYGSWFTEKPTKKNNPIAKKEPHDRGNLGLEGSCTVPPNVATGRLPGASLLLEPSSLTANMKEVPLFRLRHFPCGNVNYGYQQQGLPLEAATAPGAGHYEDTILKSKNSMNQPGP

[3] = target: T1, Protein cereblon/ALK tyrosine kinase receptor; test: Protac activity at CRBN/ALK in human SR cells assessed as protein abundance at 500 nM by Western blot analysis (reference value: 1); format: cell-based
Target sequence in this assay (Q96SW2 whole entry partner): as the sequence (Q96SW2 whole entry partner) above
Target sequence in this assay (Q9UM73 19-1620 limits assumed): as the sequence (Q9UM73 19-1620 limits assumed) above

[4] = target: T1, Protein cereblon/ALK tyrosine kinase receptor; test: Protac activity at CRBN/ALK in human SR cells assessed as increase in ALK degradation at 500 nM by Western blot analysis; format: cell-based
Target sequence in this assay (Q96SW2 whole entry partner): as the sequence (Q96SW2 whole entry partner) above
Target sequence in this assay (Q9UM73 19-1620 limits assumed): as the sequence (Q9UM73 19-1620 limits assumed) above

[5] = target: T1, Protein cereblon/ALK tyrosine kinase receptor; test: Protac activity at CRBN/ALK in human SR cells assessed as protein abundance at 0.5 nM by Western blot analysis (reference value: 1); format: cell-based
Target sequence in this assay (Q96SW2 whole entry partner): as the sequence (Q96SW2 whole entry partner) above
Target sequence in this assay (Q9UM73 19-1620 limits assumed): as the sequence (Q9UM73 19-1620 limits assumed) above

[6] = target: T1, Protein cereblon/ALK tyrosine kinase receptor; test: Protac activity at CRBN/ALK in human SR cells assessed as protein abundance at 50 nM by Western blot analysis (reference value: 1); format: cell-based
Target sequence in this assay (Q96SW2 whole entry partner): as the sequence (Q96SW2 whole entry partner) above
Target sequence in this assay (Q9UM73 19-1620 limits assumed): as the sequence (Q9UM73 19-1620 limits assumed) above

[7] = target: T1, Protein cereblon/ALK tyrosine kinase receptor; test: Protac activity at CRBN/ALK in human SR cells assessed as protein abundance at 0.05 nM by Western blot analysis (reference value: 1); format: cell-based
Target sequence in this assay (Q96SW2 whole entry partner): as the sequence (Q96SW2 whole entry partner) above
Target sequence in this assay (Q9UM73 19-1620 limits assumed): as the sequence (Q9UM73 19-1620 limits assumed) above

[8] = target: T1, Protein cereblon/ALK tyrosine kinase receptor; test: Protac activity at CRBN/ALK in human SR cells assessed as increase in ALK degradation at 200 nM by Western blot analysis relative to control; format: cell-based
[9] = target: T1, Protein cereblon/ALK tyrosine kinase receptor; test: Protac activity at CRBN/ALK in human SR cells assessed as increase in ALK degradation at 50 nM in presence of MLN4924/MG132 by Western blot analysis; format: cell-based
[10] = target: T1, Protein cereblon/ALK tyrosine kinase receptor; test: Protac activity at CRBN/ALK in human SR cells assessed as increase in ALK degradation at 50 nM in presence of MG132 by Western blot analysis; format: cell-based
[11] = target: T2, ALK tyrosine kinase receptor (Homo sapiens, UniProt Q9UM73); test: Inhibition of ALK phosphorylation in human SR cells at 0.5 nM; format: cell-based
Target sequence in this assay (Q9UM73 19-1620 limits assumed): as above

SR [12] = test: Induction of cell cycle arrest in human SR cells assessed as increase in accumulation at S phase at 100 nM incubated for 24 hrs; format: functional, cell-based
SR [13] = test: Induction of cell cycle arrest in human SR cells assessed as increase in accumulation at G1/S phase at 100 nM incubated for 24 hrs; format: functional, cell-based
[14] = target: T2, ALK tyrosine kinase receptor; test: Inhibition of ALK (unknown origin)
Target sequence in this assay (Q9UM73 whole entry): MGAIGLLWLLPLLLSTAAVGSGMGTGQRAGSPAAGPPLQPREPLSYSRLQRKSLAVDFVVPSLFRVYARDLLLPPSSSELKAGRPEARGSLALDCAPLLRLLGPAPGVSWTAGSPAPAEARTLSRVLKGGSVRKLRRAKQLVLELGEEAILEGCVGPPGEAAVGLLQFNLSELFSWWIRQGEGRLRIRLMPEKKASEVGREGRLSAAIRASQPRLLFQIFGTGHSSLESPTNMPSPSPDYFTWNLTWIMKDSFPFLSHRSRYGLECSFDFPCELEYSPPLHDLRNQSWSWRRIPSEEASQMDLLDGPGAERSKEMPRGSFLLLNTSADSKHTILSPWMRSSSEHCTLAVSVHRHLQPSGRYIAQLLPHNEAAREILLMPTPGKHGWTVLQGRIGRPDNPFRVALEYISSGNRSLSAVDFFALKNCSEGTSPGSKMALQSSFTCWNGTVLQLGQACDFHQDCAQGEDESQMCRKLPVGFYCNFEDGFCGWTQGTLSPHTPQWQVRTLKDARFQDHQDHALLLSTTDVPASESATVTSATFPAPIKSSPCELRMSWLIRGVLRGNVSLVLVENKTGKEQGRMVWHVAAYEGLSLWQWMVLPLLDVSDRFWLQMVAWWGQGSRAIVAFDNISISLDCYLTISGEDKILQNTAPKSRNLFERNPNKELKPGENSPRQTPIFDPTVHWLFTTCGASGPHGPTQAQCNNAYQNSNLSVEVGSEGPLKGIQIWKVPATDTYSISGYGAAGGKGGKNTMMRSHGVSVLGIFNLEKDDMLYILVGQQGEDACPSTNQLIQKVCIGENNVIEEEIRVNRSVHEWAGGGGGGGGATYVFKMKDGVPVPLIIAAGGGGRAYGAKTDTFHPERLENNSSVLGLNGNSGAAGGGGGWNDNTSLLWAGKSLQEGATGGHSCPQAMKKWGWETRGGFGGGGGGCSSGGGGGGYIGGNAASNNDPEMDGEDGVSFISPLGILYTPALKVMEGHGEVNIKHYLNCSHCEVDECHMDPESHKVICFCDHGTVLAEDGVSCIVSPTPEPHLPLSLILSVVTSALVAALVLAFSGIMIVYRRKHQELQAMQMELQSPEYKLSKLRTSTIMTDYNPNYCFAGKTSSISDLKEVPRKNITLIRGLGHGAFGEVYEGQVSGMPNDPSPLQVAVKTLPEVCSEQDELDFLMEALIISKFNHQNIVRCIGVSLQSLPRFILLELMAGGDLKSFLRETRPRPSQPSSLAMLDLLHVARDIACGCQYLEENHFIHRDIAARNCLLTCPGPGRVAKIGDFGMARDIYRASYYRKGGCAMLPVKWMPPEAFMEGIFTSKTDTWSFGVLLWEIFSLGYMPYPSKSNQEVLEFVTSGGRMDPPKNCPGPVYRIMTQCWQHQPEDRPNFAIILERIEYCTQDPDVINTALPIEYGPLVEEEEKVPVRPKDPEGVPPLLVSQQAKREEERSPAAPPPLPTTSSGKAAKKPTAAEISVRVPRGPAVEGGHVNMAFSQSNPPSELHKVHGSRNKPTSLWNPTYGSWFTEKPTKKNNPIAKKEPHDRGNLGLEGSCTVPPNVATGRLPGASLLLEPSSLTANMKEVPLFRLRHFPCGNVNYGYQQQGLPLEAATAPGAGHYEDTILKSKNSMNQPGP

SR [15] = test: Potency index, ratio of alectinib IC50 to test compound IC50 for antiproliferative activity against ALK positive human SR cells; format: functional
SR [16] = test: Potency index, ratio of ceritinib IC50 to test compound IC50 for antiproliferative activity against ALK positive human SR cells; format: functional
[17] = target: T1, Protein cereblon/ALK tyrosine kinase receptor; test: Protac activity at CRBN/ALK in human SR cells assessed as induction of ALK degradation by Western blot analysis; format: cell-based
Target sequence in this assay (Q9UM73 whole entry): as above
Target sequence in this assay (Q96SW2 whole entry): as the sequence (Q96SW2 whole entry partner) above

[18] = target: T1, Protein cereblon/ALK tyrosine kinase receptor; test: Protac activity at CRBN/ALK in human SR cells assessed as induction of ALK degradation at 0.05 to 500 nM by Western blot analysis relative to control; format: cell-based; conditions: dose 0.05-500 nM
[19] = target: T2, ALK tyrosine kinase receptor; test: Inhibition of ALK in human SR cells assessed as reduction in STAT3 phosphorylation at 50 nM; format: cell-based
Target sequence in this assay (Q9UM73 19-1620 limits assumed): as the sequence (Q9UM73 19-1620 limits assumed) above

[20] = target: T3, von Hippel-Lindau disease tumor suppressor/ALK tyrosine kinase receptor (Homo sapiens) (UniProt Q9UM73+P40337); test: Protac activity at VHL/ALK in human SR cells assessed as protein abundance at 500 nM by Western blot analysis (reference value: 1); format: cell-based
T3 sequence (P40337 whole entry partner): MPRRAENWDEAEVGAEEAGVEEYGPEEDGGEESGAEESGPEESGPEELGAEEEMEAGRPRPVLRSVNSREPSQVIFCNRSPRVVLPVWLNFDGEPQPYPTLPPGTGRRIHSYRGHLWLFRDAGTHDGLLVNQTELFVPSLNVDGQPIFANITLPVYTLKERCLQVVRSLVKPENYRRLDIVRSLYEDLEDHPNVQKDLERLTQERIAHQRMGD
T3 sequence (Q9UM73 19-1620 limits assumed): as the sequence (Q9UM73 19-1620 limits assumed) above

[21] = target: T3, von Hippel-Lindau disease tumor suppressor/ALK tyrosine kinase receptor (Homo sapiens); test: Protac activity at VHL/ALK in human SR cells assessed as protein abundance at 0.05 nM by Western blot analysis (reference value: 1); format: cell-based
[22] = target: T3, von Hippel-Lindau disease tumor suppressor/ALK tyrosine kinase receptor (Homo sapiens); test: Protac activity at VHL/ALK in human SR cells assessed as protein abundance at 0.5 nM by Western blot analysis (reference value: 1); format: cell-based
[23] = target: T3, von Hippel-Lindau disease tumor suppressor/ALK tyrosine kinase receptor (Homo sapiens); test: Protac activity at VHL/ALK in human SR cells assessed as protein abundance at 50 nM by Western blot analysis (reference value: 1); format: cell-based
[24] = target: T3, von Hippel-Lindau disease tumor suppressor/ALK tyrosine kinase receptor (Homo sapiens); test: Protac activity at VHL1/ALK in human SR cells assessed as increase in ALK degradation at 500 nM by Western blot analysis; format: cell-based
[25] = target: T3, von Hippel-Lindau disease tumor suppressor/ALK tyrosine kinase receptor (Homo sapiens); test: Protac activity at VHL/ALK in human SR cells assessed as protein abundance at 5 nM by Western blot analysis (reference value: 1); format: cell-based

**Q.** What does the source list for `CCc1cc2c(cc1N1CCC(N3CCN(C(=O)CCOCCOCCOCCOCCNc4cccc5c4C(=O)N(C4CCC(=O)NC4=O)C5=O)CC3)CC1)C(C)(C)c1[nH]c3cc(C#N)ccc3c1C2=O` (stereo not drawn)?
**A.** IC50 (SR [1]): 3.1 nM; Activity [2]: 0.96; Activity [3]: 0.53; Activity [4]: Active; Activity [5]: 1.03; Activity [6]: 0.7; Activity [7]: 1.01

**Q.** Which IC50 (SR [1]) does the source give for `CCc1cc2c(cc1N1CCC(N3CCN(C(=O)CCCNc4cccc5c4CN(C4CCC(=O)NC4=O)C5=O)CC3)CC1)C(C)(C)c1[nH]c3cc(C#N)ccc3c1C2=O` (stereo not drawn) here?
**A.** 3.3 nM

**Q.** `CCc1cc2c(cc1N1CCC(NC(=O)CCOCCOCCNc3cccc4c3C(=O)N(C3CCC(=O)NC3=O)C4=O)CC1)C(C)(C)c1[nH]c3cc(C#N)ccc3c1C2=O` (stereo not drawn) was tested. Which IC50 (SR [1]) did it give?
**A.** 12 nM

**Q.** `Cc1cc(Nc2ncc(Cl)c(Nc3ccccc3S(=O)(=O)C(C)C)n2)c(OC(C)C)cc1C1CCNCC1` [CERITINIB] was tested. Which IC50 (SR [1]) did it give?
**A.** 2.2 nM

**Q.** Which IC50 (SR [1]) does the source give for `CCc1cc2c(cc1N1CCC(N3CCN(C(=O)CCCCCCNc4cccc5c4CN(C4CCC(=O)NC4=O)C5=O)CC3)CC1)C(C)(C)c1[nH]c3cc(C#N)ccc3c1C2=O` (stereo not drawn) here?
**A.** 9.2 nM

**Q.** How did the Activity [8] turn out when `CCc1cc2c(cc1N1CCC(N3CCN(C(=O)CNc4cccc5c4CN(C4CCC(=O)NC4=O)C5=O)CC3)CC1)C(C)(C)c1[nH]c3cc(C#N)ccc3c1C2=O` (stereo not drawn) was run?
**A.** > 50%

**Q.** What about the Activity [9] of the same molecule?
**A.** inactive

**Q.** And the Activity [10]?
**A.** inactive

**Q.** And the inhibition [11]?
**A.** inactive

**Q.** And the Activity (SR [12])?
**A.** inactive

**Q.** And the IC50 (SR [1])?
**A.** 0.5 nM

**Q.** What about the Activity (SR [13]) of the same molecule?
**A.** Active

**Q.** What about the IC50 [14] of the same molecule?
**A.** 4.7 nM

**Q.** And the Activity [2]?
**A.** 0.48

**Q.** What about the Activity [3] of the same molecule?
**A.** 0.27

**Q.** What about the Ratio (SR [15]) of the same molecule?
**A.** 6

**Q.** What about the Activity [4] of the same molecule?
**A.** Active

**Q.** What about the Ratio (SR [16]) of the same molecule?
**A.** 5

**Q.** What about the Activity [5] of the same molecule?
**A.** 0.67

**Q.** And the Activity [6]?
**A.** 0.24

**Q.** What about the DC50 [17] of the same molecule?
**A.** 6300 nM

**Q.** And the Emax [18]?
**A.** 87.7%

**Q.** And the inhibition [19]?
**A.** inactive

**Q.** And the Activity [7]?
**A.** 0.9

**Q.** How did the IC50 (SR [1]) turn out when `Cc1cc(Nc2ncc(Cl)c(Nc3ccccc3S(=O)(=O)C(C)C)n2)c(OC(C)C)cc1C1CCN(CCOCCOCCNC(=O)CNc2cccc3c2C(=O)N(C2CCC(=O)NC2=O)C3=O)CC1` (stereo not drawn) was run?
**A.** 5.9 nM

**Q.** With `Cc1cc(Nc2ncc(Cl)c(Nc3ccccc3S(=O)(=O)C(C)C)n2)c(OC(C)C)cc1C1CCN(C(=O)NCCOCCOCCOCCOCCOCCNC(=O)CNc2cccc3c2C(=O)N(C2CCC(=O)NC2=O)C3=O)CC1` (stereo not drawn) as the molecule, how does the IC50 (SR [1]) read?
**A.** 13.8 nM

**Q.** What does the source list for `CCc1cc2c(cc1N1CCC(N3CCN(C(=O)CCCCC(=O)NC(C(=O)N4C[C@H](O)C[C@H]4C(=O)NCc4ccc(-c5scnc5C)cc4)C(C)(C)C)CC3)CC1)C(C)(C)c1[nH]c3cc(C#N)ccc3c1C2=O` (single isomer, unassigned)?
**A.** Activity [20]: 0.43; IC50 (SR [1]): 32.5 nM; Activity [21]: 0.96; Activity [22]: 1.14; Activity [23]: 0.93; Activity [24]: Active; Activity [25]: 1.04

**Q.** `CCc1cc2c(cc1N1CCN(C(=O)CCOCCOCCNc3cccc4c3C(=O)N(C3CCC(=O)NC3=O)C4=O)CC1)C(C)(C)c1[nH]c3cc(C#N)ccc3c1C2=O` (stereo not drawn) was tested. Which IC50 (SR [1]) did it give?
**A.** 30.8 nM

**Q.** For `CCc1cc2c(cc1N1CCNCC1)C(C)(C)c1[nH]c3cc(C#N)ccc3c1C2=O`, which IC50 (SR [1]) is on record?
**A.** 0.8 nM

**Q.** For `CCc1cc2c(cc1N1CCC(N3CCN(CCCCCCCC#Cc4cccc5c4CN(C4CCC(=O)NC4=O)C5=O)CC3)CC1)C(C)(C)c1[nH]c3cc(C#N)ccc3c1C2=O` (stereo not drawn), which IC50 (SR [1]) is on record?
**A.** 3.3 nM

**Q.** For `Cc1cc(Nc2ncc(Cl)c(Nc3ccccc3S(=O)(=O)C(C)C)n2)c(OC(C)C)cc1C1CCN(C(=O)NCCNC(=O)CNc2cccc3c2C(=O)N(C2CCC(=O)NC2=O)C3=O)CC1` (stereo not drawn), which IC50 (SR [1]) is on record?
**A.** 8.5 nM

**Q.** With `COc1cc(N2CCC(N3CCN(C)CC3)CC2)ccc1Nc1ncc(Cl)c(Nc2ccccc2P(C)(C)=O)n1` [BRIGATINIB] as the molecule, how does the IC50 (SR [1]) read?
**A.** 1.9 nM

**Q.** How did the IC50 (SR [1]) turn out when `CCc1cc2c(cc1N1CCC(NC(=O)CCOCCOCCOCCOCCNc3cccc4c3C(=O)N(C3CCC(=O)NC3=O)C4=O)CC1)C(C)(C)c1[nH]c3cc(C#N)ccc3c1C2=O` (stereo not drawn) was run?
**A.** 5.9 nM

**Q.** `CCc1cc2c(cc1N1CCC(N3CCN(CCCCC#Cc4cccc5c4CN(C4CCC(=O)NC4=O)C5=O)CC3)CC1)C(C)(C)c1[nH]c3cc(C#N)ccc3c1C2=O` (stereo not drawn) was tested. Which IC50 (SR [1]) did it give?
**A.** 1.2 nM

**Q.** How did the IC50 (SR [1]) turn out when `CCc1cc2c(cc1N1CCC(NC(=O)CNc3cccc4c3C(=O)N(C3CCC(=O)NC3=O)C4=O)CC1)C(C)(C)c1[nH]c3cc(C#N)ccc3c1C2=O` (stereo not drawn) was run?
**A.** 13.5 nM

**Q.** `CCc1cc2c(cc1N1CCN(C(=O)CCCCCNc3cccc4c3C(=O)N(C3CCC(=O)NC3=O)C4=O)CC1)C(C)(C)c1[nH]c3cc(C#N)ccc3c1C2=O` (stereo not drawn) was tested. Which IC50 (SR [1]) did it give?
**A.** 15.1 nM
